Entries after “also recorded” stand apart in the source; their conditions may differ.
Assays:
PIM-1 = PIM-1 expression in cultured cardiomyocytes (immunoblot, confocal microscopy); type: cell-based, rat; conditions: for induction of PIM-1 expression / PIM-1 immunoreactivity by confocal microscopy: treatment for 2 hours; for PIM-1 protein level (immunoblot): 2 hour exposure; for PIM-1 immunoreactivity by confocal microscopy: compared to control cells
Protocol: Neonatal Rat Cardiomyocyte Cultures infections and treatments. Neonatal rat cardiomyocyte cultures were prepared as described previously^12. Cells to be subjected to treatments were placed in media with 2% serum overnight and then treated with the appropriate agent and harvested or fixed after the pre-described timepoint. Cardiomyocytes were infected with adenovirus for two hours, washed in PBS and then re-fed M199 with 2% FBS and 50 μg/ml pen/strep, and 100 μM glutamine.
Immunoblotting. Infected cardiomyocytes were harvested 24 hours after infection in SDS denaturing sample buffer, sonicated and boiled for 10 minutes, and quantitated using the Bradford assay. Mouse whole heart lysates were generated from flash frozen hearts pulverized in a mortar and pestle then resuspended in SDS denaturing sample buffer, sonicated, boiled for 10 minutes and quantitated using Bradford assay. […] Blots were blocked in 3% BSA for 1 hour, and probed with primary antibodies (PIM-1 (Cell Signaling Technology), c-jun (Cell Signaling Technology), HISTONE3™ (Cell Signaling Technology), GFP (Molecular Probes), bcl-2 (Santa Cruz), bcl-XL (Cell Signaling Technology), PHOSPHO-BADS112™ (Biosource) AKT (Cell Signaling Technology), GAPDH (Research Diagnostics Inc.), PHOSPHO-AKTS473™ (Cell Signaling Technology), total PARP (Biosource), cleaved PARP (Biosource), and cleaved caspase3 (Cell Signaling Technologies)) diluted in blocking solution overnight at 4° C. Blots were washed in TBS-0.5% Tween three times and probed with fluorescent or alkaline phosphatase conjugated secondary antibodies diluted 1:5000 in blocking solution for 1 hour at room temperature followed by three washes in TBS-0.5% Tween. […] All quantitation is based on standardization to loading controls.
Immunohistochemistry. Hearts were fixed and embedded and cardiomyocytes fixed and permeabilized as described previously^12. Staining of cultured neonatal rat cardiomyocytes was performed with antibodies described above diluted 1:25 in PBS containing 10% horse serum overnight at 4° C. Slides were washed in PBS and probed with fluorescent conjugated secondary antibodies (1:100) for one hour at room temperature, and Texas Red phalloidin (1:50 Molecular Probes) to identify actin filaments. Slides were washed three times in PBS, and stained for 30 minutes with TOPRO-3™ (1:5000 Molecular Probes) to identify nuclei, washed once and cover-slipped using […]™ (Vectra Labs). Paraffin embedded samples were cut at 4 μm and deparaffinized through a standard series of Xylene and graded Ethanol steps to water. Antigen retrieval was performed in 10 mM Citrate pH6.0. PIM-1 and phospho-AKT signals were amplified using the TYRAMIDE AMPLIFICATION KIT™ (Perkin Elmer) with primary concentrations of 1:500 for both antibodies, and secondaries 1:3000. Slides were washed following the amplification process, and stained with TOPRO-3 (Molecular Probes) to identify nuclei, washed and cover-slipped with […]™ (Vectra Labs). Confocal imaging of stained slides was performed on a Leica LCS confocal microscope. For comparison purposes, all slides were treated identically and scanned using the same settings in each experiment.

[1] = test system: neonatal rat cardiomyocytes (NRCMs); experiment: Endothelin-1 induced hypertrophy, cell surface area of neonatal rat cardiomyocytes; type: cell-based; conditions: 10 nM for 1 hour prior to 48 hour incubation with ET-1; compared to ET-1 stimulated cells without inhibitor
Protocol: The impact of Pim-wt overexpression upon cardiomyocyte hypertrophy was initially examined using neonatal rat cardiomyocytes (NRCMs) infected with adenoviruses encoding EGFP-Pim-wt or EGFP protein followed by stimulation with endothelin-1 (ET-1) for 24 hours.
Neonatal rat cardiomyocyte cultures were prepared as described previously (10).

protein phosphatase 2A = conditions: cited from earlier work

## C[C@@H]1C[C@H]2[C@@H]3CCC4=CC(=O)C=C[C@]4(C)[C@@]3(F)[C@@H](O)C[C@]2(C)[C@@]1(O)C(=O)CO [dexamethasone]
PIM-1
  induction of PIM-1 expression: 2.0 fold

## Insulin-like Growth Factor [IGF-1]
PIM-1
  PIM-1 protein level (immunoblot): significantly increased PIM-1 expression; also recorded: Induction is evident
  induction of PIM-1 expression: 2.7 fold
  PIM-1 immunoreactivity by confocal microscopy: induced PIM-1 immunoreactivity

## O=c1c(O)c(-c2ccc(O)c(O)c2)oc2cc(O)c(O)c(O)c12 [quercetagetin]
[1]
  cell surface of Pim-1 expressing NRCM cultures: significantly larger surface

## CCCCCCCCCCCCCC(=O)O[C@@H]1[C@@H](C)[C@@]2(O)[C@@H](C=C(CO)C[C@]3(O)C(=O)C(C)=C[C@@H]23)[C@@H]2C(C)(C)[C@]12OC(C)=O [PMA]
PIM-1
  PIM-1 protein level (immunoblot): significantly increased PIM-1 expression; also recorded: Induction is evident
  induction of PIM-1 expression: 2.3 fold
  PIM-1 immunoreactivity by confocal microscopy: induced PIM-1 immunoreactivity

## CNC[C@H](O)c1cccc(O)c1 [phenylephrine]
PIM-1
  PIM-1 protein level (immunoblot): did not markedly increase Pim-1 protein expression
  PIM-1 immunoreactivity by confocal microscopy: not induced
PIM-1; listed as phenyl-ephedrine
  PIM-1 protein level (immunoblot): little or no increase

## endothelin-1
PIM-1
  PIM-1 protein level (immunoblot): little or no increase; also recorded: did not markedly increase Pim-1 protein expression
  PIM-1 immunoreactivity by confocal microscopy: not induced

## C=C1[C@@H](O)[C@@H]2O[C@]3(CC[C@H](/C=C/[C@@H](C)[C@@H]4CC(C)=C[C@@]5(O[C@H](C[C@@](C)(O)C(=O)O)CC[C@H]5O)O4)O3)CC[C@H]2O[C@@H]1[C@@H](O)C[C@H](C)[C@H]1O[C@@]2(CCCCO2)CC[C@H]1C [Okadaic acid]
Protein phosphatase 2A
  effect on negative regulation of PIM-1 by protein phosphatase 2A: inhibit or block negative regulation of PIM-1 by protein phosphatase 2A

## C=C[C@@]1(C)CC(=O)[C@]2(O)[C@@]3(C)[C@@H](O)CCC(C)(C)[C@@H]3[C@H](O)[C@H](OC(C)=O)[C@@]2(C)O1 [forskolin]
PIM-1; versus control cultures
  reduction of PIM-1 expression: 45%

## Leukemia Inhibitory Factor [LIF]
PIM-1
  PIM-1 protein level (immunoblot): significantly increased PIM-1 expression
  induction of PIM-1 expression: 2.8 fold
  PIM-1 immunoreactivity by confocal microscopy: induced PIM-1 immunoreactivity

## COC[C@H]1OC(=O)c2coc3c2[C@@]1(C)C1=C(C3=O)[C@@H]2CCC(=O)[C@@]2(C)C[C@H]1OC(C)=O [wortmannin]
PIM-1; in the presence of the inhibitor or inactivated AKT
  reduction of PIM-1 expression in response to IGF-1 treatment: 4.0 fold

B1: SV40 small T antigen: viral protein said to block negative regulation of PIM-1 by protein phosphatase 2A (protein, UniProt P03081 1-174, looked up)
Small t antigen: MDKVLNREESLQLMDLLGLERSAWGNIPLMRKAYLKKCKEFHPDKGGDEEKMKKMNTLYKKMEDGVKYAHQPDFGGFWDATEVFASSLNPGVDAMYCKQWPECAKKMSANCICLLCLLRMKHENRKLYRKDPLVWVDCYCFDCFRMWFGLDLCEGTLLLWCDIIGQTTYRDLKL
Protein phosphatase 2A
  effect on negative regulation of PIM-1 by protein phosphatase 2A: inhibit or block negative regulation of PIM-1 by protein phosphatase 2A

— patent publication US8617534B2, “Compositions and method for manipulating PIM-1 activity in circulatory system cells” (San Diego State University (SDSU) Foundation, priority 2007, dated 2013)
